Measured values taken from EP0314038A1, “Pyrrolidines” (Byk Gulden Lomberg Chemische Fabrik GmbH, priority 1987, dated 1989).
Counter-ions that a name gives are not always drawn.

Tested on: spontan hypertonen Ratte
Test: antihypertensive effect (systolic blood pressure, tail cuff) in spontaneously hypertensive rats after oral administration
Assay type: in vivo
Conditions: genetically hypertensive rats (SHR/N/Ibm/Bm), N=6; for BP (% Änderung vs. Kontrolle), Mittelwert für Meßzeitpunkte: Stunden nach Gabe (Tage) 2h (1.+4.Tag): 2h after dosing, mean of days 1+4; for BP (% Änderung vs. Kontrolle), Mittelwert für Meßzeitpunkte: Stunden nach Gabe (Tage) 6h (1.-4.Tag): 6h after dosing, mean of days 1-4
Source text: Die antihypertensive Wirksamkeit der erfindungsgemäßen Verbindungen kann am Modell der spontan hypertonen Ratte nachgewiesen werden.
Zur Bestimmung der antihypertensiven Wirkung werden die unten aufgeführten Verbindungen in den angegebenen Dosen an vier aufeinander folgenden Tagen an je 6 männlichen Ratten (Stamm SHR/N/Ibm/Bm, 250-350 g) mit genetisch bedingtem Hochdruck (systolischer Blutdruck > 180 mmHg) täglich einmal mittels Schlundsonde verabfolgt. Die Messung des Blutdrucks erfolgt jeweils 6 und gegebenenfalls 2 oder 24 Stunden nach Substanzgabe.
Die Blutdruckmessung wird in einer Wärmekammer bei 36°C vorgenommen, um eine bessere Durchblutung der Schwanzarterie zu erreichen. Hierzu werden die Tiere in perforierte Lochblechkäfige verbracht und 20 - 40 Min. nach Beginn der Aufwärmung gemessen. Zur Messung des systolischen arteriellen Drucks wird eine ringförmige Manschette mit aufblasbarer Gummimembran zur Unterbindung der Durchblutung und ein ringförmiger Piezokristallaufnehmer zur Erfassung der Pulswellen auf den Schwanz aufgeschoben. Nach erfolgter Unterbindung des Blutstroms in der Schwanzarterie wird der Manschettendruck kontinuierlich reduziert. Die Wiederkehr der Pulswellen bei Druckablassen wird automatisch als systolischer Blutdruck erkannt und ausgedruckt (Bühler, R. et al.,: Microprocessor-based automation of blood pressure measurement in the conscious rat. Proceedings of the 4th international symposium on rats with spontaneous hypertension and related studies, Rascher, R. et al. (Eds.), Schattauer Verlag, Stuttgart, New York, 1982, S. 410-413). Pulssignale und Druckverlauf werden zur Auswertung graphisch aufgezeichnet.
Zur Gewöhnung an den Meßvorgang werden die Tiere vor Substanzprüfung 14 Tage trainiert. In der zweiten Trainingswoche werden Blutdruck-Vorwerte erhoben. Tiergruppen, die Substanz erhalten, werden gegen eine Kontrollgruppe geprüft.
In der anscließenden Tabelle werden die untersuchten Verbindungen durch laufende Nummern gekennzeichnet, die mit den jeweiligen Beispielnummern übereinstimmen.
Tabelle I gibt für die Vertreter der erfindungsgemäßen Verbindungen die prozentuale Senkung des Blutdrucks (BP) nach oraler Verabreichung bei der Ratte wieder. Tabelle I

[1] = 25 µmol/kg p.o. once daily on four consecutive days
[2] = 10 µmol/kg p.o. once daily on four consecutive days

Compound | BP (% Änderung vs. Kontrolle), Mittelwert für Meßzeitpunkte: Stunden nach Gabe (Tage) 2h (1.+4.Tag) [1] | BP (% Änderung vs. Kontrolle), Mittelwert für Meßzeitpunkte: Stunden nach Gabe (Tage) 6h (1.-4.Tag) [1] | BP (% Änderung vs. Kontrolle), Mittelwert für Meßzeitpunkte: Stunden nach Gabe (Tage) 24h (1.+3.Tag) (25 µmol/kg p.o. once daily on four consecutive days, 24h after dosing, mean of days 1+3) | BP (% Änderung vs. Kontrolle), Mittelwert für Meßzeitpunkte: Stunden nach Gabe (Tage) 2h (1.+4.Tag) [2] [%] | BP (% Änderung vs. Kontrolle), Mittelwert für Meßzeitpunkte: Stunden nach Gabe (Tage) 6h (1.-4.Tag) [2]
CCOC(=O)C1=C(C)NC(C)=C(C(=O)OCCCN2CCCC2Cc2ccc(Cl)cc2)C1c1cccc([N+](=O)[O-])c1 (racemic) [Beispiel 1, 1,4-Dihydro-2,6-dimethyl-4-(±)-(3-nitrophenyl)-pyridin-3,5-dicarbonsäure-3-ethyl-5-{3-[2-(±)-(4-chlorbenzyl)-pyrrolidinyl-1]-propyl}-ester-hydrochlorid] | -55,5% | -43,5% |  |  | 
COC(=O)C1=C(C)NC(C)=C(C(=O)OCCCN2CCCC2Cc2ccc(Cl)cc2)C1c1cccc([N+](=O)[O-])c1 (racemic) [Beispiel 2, 1,4-Dihydro-2,6-dimethyl-4-(±)-(3-nitrophenyl)-pyridin-3,5-dicarbonsäure-3-methyl-5-{3-[2-(-)-(4-chlorbenzyl)-pyrrolidinyl-1]-propyl}-ester-hydrochlorid] | -47% | -34% | -13,5% |  | 
COC(=O)C1=C(C)NC(C)=C(C(=O)OCCCN2CCCC2Cc2ccc(Cl)cc2)C1c1cccc(Cl)c1Cl (racemic) [Beispiel 8, 1,4-Dihydro-2,6-dimethyl-4-(±)-(2,3-dichlorphenyl)-pyridin-3,5-dicarbonsäure-3-methyl-5-{3-[2-(-)-(4-chlorbenzyl)-pyrrolidinyl-1]-propyl}-ester-hydrochlorid] |  |  |  | -39 | -25,5%
COC(=O)C1=C(C)NC(C)=C(C(=O)OCCCN2CCCC2Cc2ccc([N+](=O)[O-])cc2)C1c1cccc([N+](=O)[O-])c1 (racemic) [Beispiel 11, 1,4-Dihydro-2,6-dimethyl-4-(+)-(3-nitrophenyl)-pyridin-3,5-dicarbonsäure-3-methyl-5-{3-[2-(±)-(4-nitrobenzyl)-pyrrolidinyl-1]-propyl}-ester-hydrochlorid] | -36,5% | -25,5% |  |  | 
COC(=O)C1=C(C)NC(C)=C(C(=O)OCCCN2CCCC2Cc2ccc(Cl)cc2)C1c1cccc([N+](=O)[O-])c1 (single isomer, unassigned) [Beispiel 4, 1,4-Dihydro-2,6-dimethyl-4-(+)-(3-nitrophenyl)-pyridin-3,5-dicarbonsäure-3-methyl-5-{3-[2-(-)-(4-chlorbenzyl)-pyrrolidinyl-1]-propyl}-ester-hydrochlorid] |  |  |  | -48 | -33%
